Laboratory results reported in patent publication US6737383B1, “Herbicidal oxadiazolidines” (priority 1999, dated 2004).

Assays:
crabgrass = test: Test B pre/postemergence crabgrass; type: in vivo, Digitaria sanguinalis; details: for Crabgrass plant response rating (0 to 10 scale): 0 is no effect
Method in brief: (§1)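 Herbicidal effect was estimated by eye on a ten-point control scale after plants spent twelve to sixteen days in a greenhouse following soil or foliar treatment. Foliar sprays targeted plants at one to four leaves; all doses were formulated in a non-phytotoxic solvent with surfactant.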

velvetleaf = test: Test B pre/postemergence velvetleaf; type: in vivo, Abutilon theophrasti; details: for Velvetleaf plant response rating (0 to 10 scale): Rate 125 g/ha, 0 is no effect
Method in brief: as §1

wheat = test: Test B pre/postemergence wheat; type: in vivo, Triticum aestivum; details: for Wheat plant response rating (0 to 10 scale): Rate 125 g/ha, 0 is no effect
Method in brief: as §1

cocklebur = test: Test B pre/postemergence cocklebur; type: in vivo, Xanthium strumarium; details: for Cocklebur plant response rating (0 to 10 scale): 0 is no effect
Method in brief: as §1

giant foxtail = test: Test B pre/postemergence giant foxtail; type: in vivo, Setaria faberii; details: for Giant foxtail plant response rating (0 to 10 scale): 0 is no effect
Method in brief: as §1

soybean = test: Test B pre/postemergence soybean; type: in vivo, Glycine max; details: for Soybean plant response rating (0 to 10 scale): 0 is no effect
Method in brief: as §1

purple nutsedge = test: Test B pre/postemergence purple nutsedge; type: in vivo, Cyperus rotundus; details: for Nutsedge plant response rating (0 to 10 scale): 0 is no effect
Method in brief: as §1

rape = test: Test B pre/postemergence rape; type: in vivo, Brassica napus; details: for Rape plant response rating (0 to 10 scale): 0 is no effect
Method in brief: as §1

blackgrass = test: Test B pre/postemergence blackgrass; type: in vivo, Alopecurus myosuroides; details: for Blackgrass plant response rating (0 to 10 scale): 0 is no effect
Method in brief: as §1

sugar beet = test: Test B pre/postemergence sugar beet; type: in vivo, Beta vulgaris; details: for Sugarbeets plant response rating (0 to 10 scale): 0 is no effect
Method in brief: as §1

corn = test: Test B pre/postemergence corn; type: in vivo, Zea mays; details: for Corn plant response rating (0 to 10 scale): 0 is no effect
Method in brief: as §1

bedstraw = test: Test B pre/postemergence bedstraw; type: in vivo, Galium aparine; details: for Bedstraw plant response rating (0 to 10 scale): 0 is no effect
Method in brief: as §1

surinam grass = test: Test B pre/postemergence surinam grass; type: in vivo, Brachiaria decumbens; details: for B. signalgrass plant response rating (0 to 10 scale): 0 is no effect
Method in brief: as §1

[1] = Postemergence, Rate 125 g/ha, scale of 0 to 10 where 0 is no effect and 10 is complete control
[2] = Preemergence, Rate 62 g/ha, scale of 0 to 10 where 0 is no effect and 10 is complete control
[3] = Preemergence, Rate 125 g/ha, 10 is complete control
[4] = Preemergence, Rate 250 g/ha, scale 0 to 10, 0 is no effect, 10 is complete control
[5] = Preemergence, Rate 500 g/ha, scale 0 to 10 (0 no effect, 10 complete control)
[6] = Rate 62 g/ha, Postemergence, scale of 0 to 10 where 0 is no effect and 10 is complete control
[7] = Rate 250 g/ha, Postemergence, scale 0 to 10, 0 is no effect, 10 is complete control
[8] = Rate 500 g/ha, Postemergence, scale 0 to 10
[9] = Preemergence, 10 is complete control
[10] = Rate 500 g/ha, Postemergence, scale 0 to 10, 0 no effect, 10 complete control

CC1CCCCC1n1c(=O)on(C(=O)N(c2ccccc2)C(C)C)c1=O (stereo not shown) [Compound 162]
Crabgrass plant response rating (crabgrass; [1]): 2 | Crabgrass plant response rating (crabgrass; [2]): 6 | Crabgrass plant response rating (0 to 10 scale) (crabgrass; [3]): 8 | Crabgrass plant response rating (crabgrass; [4]): 9 | Crabgrass plant response rating (crabgrass; [5]): 10 | Crabgrass plant response rating (crabgrass; [6]): 0 | Plant response rating, Crabgrass (crabgrass; [7]): 6 | Crabgrass plant response rating (crabgrass; [8]): 8 | Velvetleaf plant response rating (velvetleaf; [2]): 0 | Velvetleaf plant response rating (0 to 10 scale) (velvetleaf; [9]): 0 | Velvetleaf plant response rating (velvetleaf; [4]): 0 | Velvetleaf plant response rating (velvetleaf; [5]): 0 | Plant response rating, Velvetleaf (velvetleaf; [7]): 4 | Velvetleaf plant response rating (velvetleaf; [8]): 4 | Wheat plant response rating (wheat; [2]): 0 | Wheat plant response rating (0 to 10 scale) (wheat; [9]): 0 | Wheat plant response rating (wheat; [4]): 0 | Wheat plant response rating (wheat; [5]): 0 | Plant response rating, Wheat (wheat; [7]): 0 | Wheat plant response rating (wheat; [8]): 0 | Cocklebur plant response rating (cocklebur; [1]): 0 | Cocklebur plant response rating (cocklebur; [2]): 0 | Cocklebur plant response rating (0 to 10 scale) (cocklebur; [3]): 0 | Cocklebur plant response rating (cocklebur; [4]): 0 | Cocklebur plant response rating (cocklebur; [5]): 0 | Cocklebur plant response rating (cocklebur; [6]): 0 | Plant response rating, Cocklebur (cocklebur; [7]): 0 | Cocklebur plant response rating (cocklebur; [8]): 2 | Giant foxtail plant response rating (giant foxtail; [1]): 2 | Giant foxtail plant response rating (giant foxtail; [2]): 7 | Giant foxtail plant response rating (0 to 10 scale) (giant foxtail; [3]): 7 | Giant foxtail plant response rating (giant foxtail; [4]): 9 | Giant foxtail plant response rating (giant foxtail; [5]): 9 | Giant foxtail plant response rating (giant foxtail; [6]): 0 | Plant response rating, Giant foxtail (giant foxtail; [7]): 2 | Giant foxtail plant response rating (giant foxtail; [8]): 3 | Soybean plant response rating (soybean; [1]): 4 | Soybean plant response rating (soybean; [2]): 0 | Soybean plant response rating (0 to 10 scale) (soybean; [3]): 0 | Soybean plant response rating (soybean; [4]): 0 | Soybean plant response rating (soybean; [5]): 0 | Soybean plant response rating (soybean; [6]): 3 | Plant response rating, Soybean (soybean; [7]): 4 | Soybean plant response rating (soybean; [8]): 4 | Nutsedge plant response rating (purple nutsedge; [1]): 0 | Nutsedge plant response rating (purple nutsedge; [2]): 0 | Nutsedge plant response rating (0 to 10 scale) (purple nutsedge; [3]): 0 | Nutsedge plant response rating (purple nutsedge; [4]): 0 | Nutsedge plant response rating (purple nutsedge; [5]): 0 | Nutsedge plant response rating (purple nutsedge; [6]): 0 | Plant response rating, Nutsedge (purple nutsedge; [7]): 0 | Nutsedge plant response rating (purple nutsedge; [8]): 2 | Rape plant response rating (rape; [1]): 0 | Rape plant response rating (rape; [2]): 0 | Rape plant response rating (0 to 10 scale) (rape; [3]): 2 | Rape plant response rating (rape; [4]): 4 | Rape plant response rating (rape; [5]): 9 | Rape plant response rating (rape; [6]): 0 | Plant response rating, Rape (rape; [7]): 0 | Rape plant response rating (rape; [8]): 0 | Blackgrass plant response rating (blackgrass; [1]): 0 | Blackgrass plant response rating (blackgrass; [2]): 0 | Blackgrass plant response rating (0 to 10 scale) (blackgrass; [3]): 2 | Blackgrass plant response rating (blackgrass; [4]): 2 | Blackgrass plant response rating (blackgrass; [5]): 3 | Blackgrass plant response rating (blackgrass; [6]): 0 | Plant response rating, Blackgrass (blackgrass; [7]): 0 | Blackgrass plant response rating (blackgrass; [8]): 6 | Sugarbeets plant response rating (sugar beet; [1]): 0 | Sugarbeets plant response rating (sugar beet; [2]): 0 | Sugarbeets plant response rating (0 to 10 scale) (sugar beet; [3]): 0 | Sugarbeets plant response rating (sugar beet; [4]): 0 | Sugarbeets plant response rating (sugar beet; [5]): 0 | Sugarbeets plant response rating (sugar beet; [6]): 0 | Plant response rating, Sugarbeets (sugar beet; [7]): 0 | Sugarbeets plant response rating (sugar beet; [8]): 0 | Corn plant response rating (corn; [1]): 0 | Corn plant response rating (corn; [2]): 0 | Corn plant response rating (0 to 10 scale) (corn; [3]): 0 | Corn plant response rating (corn; [4]): 0 | Corn plant response rating (corn; [5]): 0 | Corn plant response rating (corn; [6]): 0 | Plant response rating, Corn (corn; [7]): 0 | Corn plant response rating (corn; [8]): 0 | Bedstraw plant response rating (bedstraw; [1]): 2 | Bedstraw plant response rating (bedstraw; [2]): 0 | Bedstraw plant response rating (0 to 10 scale) (bedstraw; [3]): 0 | Bedstraw plant response rating (bedstraw; [4]): 0 | Bedstraw plant response rating (bedstraw; [5]): 0 | Bedstraw plant response rating (bedstraw; [6]): 0 | Plant response rating, Bedstraw (bedstraw; [7]): 3 | Bedstraw plant response rating (bedstraw; [8]): 6 | B. signalgrass plant response rating (surinam grass; [1]): 0 | B. signalgrass plant response rating (surinam grass; [2]): 0 | B. signalgrass plant response rating (0 to 10 scale) (surinam grass; [3]): 2 | B. signalgrass plant response rating (surinam grass; [4]): 3 | B. signalgrass plant response rating (surinam grass; [5]): 7 | B. signalgrass plant response rating (surinam grass; [6]): 0 | Plant response rating, B. signalgrass (surinam grass; [7]): 0 | B. signalgrass plant response rating (surinam grass; [10]): 4

CC(C)N(C(=O)n1oc(=O)n([C@@H](C)c2ccccc2)c1=O)c1ccc(Cl)cc1 [Compound 174]
Crabgrass plant response rating (crabgrass; [1]): 4 | Crabgrass plant response rating (crabgrass; [2]): 2 | Crabgrass plant response rating (0 to 10 scale) (crabgrass; [3]): 8 | Crabgrass plant response rating (crabgrass; [4]): 8 | Crabgrass plant response rating (crabgrass; [5]): 10 | Crabgrass plant response rating (crabgrass; [6]): 2 | Plant response rating, Crabgrass (crabgrass; [7]): 7 | Crabgrass plant response rating (crabgrass; [8]): 8 | Velvetleaf plant response rating (velvetleaf; [2]): 0 | Velvetleaf plant response rating (0 to 10 scale) (velvetleaf; [9]): 0 | Velvetleaf plant response rating (velvetleaf; [4]): 0 | Velvetleaf plant response rating (velvetleaf; [5]): 0 | Plant response rating, Velvetleaf (velvetleaf; [7]): 0 | Velvetleaf plant response rating (velvetleaf; [8]): 0 | Wheat plant response rating (wheat; [2]): 0 | Wheat plant response rating (0 to 10 scale) (wheat; [9]): 0 | Wheat plant response rating (wheat; [4]): 0 | Wheat plant response rating (wheat; [5]): 0 | Plant response rating, Wheat (wheat; [7]): 0 | Wheat plant response rating (wheat; [8]): 0 | Cocklebur plant response rating (cocklebur; [1]): 1 | Cocklebur plant response rating (cocklebur; [2]): 0 | Cocklebur plant response rating (0 to 10 scale) (cocklebur; [3]): 0 | Cocklebur plant response rating (cocklebur; [4]): 0 | Cocklebur plant response rating (cocklebur; [5]): 0 | Cocklebur plant response rating (cocklebur; [6]): 0 | Plant response rating, Cocklebur (cocklebur; [7]): 2 | Cocklebur plant response rating (cocklebur; [8]): 3 | Giant foxtail plant response rating (giant foxtail; [1]): 0 | Giant foxtail plant response rating (giant foxtail; [2]): 8 | Giant foxtail plant response rating (0 to 10 scale) (giant foxtail; [3]): 9 | Giant foxtail plant response rating (giant foxtail; [4]): 10 | Giant foxtail plant response rating (giant foxtail; [5]): 10 | Giant foxtail plant response rating (giant foxtail; [6]): 0 | Plant response rating, Giant foxtail (giant foxtail; [7]): 0 | Giant foxtail plant response rating (giant foxtail; [8]): 1 | Soybean plant response rating (soybean; [1]): 2 | Soybean plant response rating (soybean; [2]): 0 | Soybean plant response rating (0 to 10 scale) (soybean; [3]): 0 | Soybean plant response rating (soybean; [4]): 0 | Soybean plant response rating (soybean; [5]): 0 | Soybean plant response rating (soybean; [6]): 2 | Plant response rating, Soybean (soybean; [7]): 2 | Soybean plant response rating (soybean; [8]): 4 | Nutsedge plant response rating (purple nutsedge; [1]): 0 | Nutsedge plant response rating (purple nutsedge; [2]): 0 | Nutsedge plant response rating (0 to 10 scale) (purple nutsedge; [3]): 0 | Nutsedge plant response rating (purple nutsedge; [6]): 0 | Plant response rating, Nutsedge (purple nutsedge; [7]): 0 | Nutsedge plant response rating (purple nutsedge; [8]): 0 | Rape plant response rating (rape; [1]): 0 | Rape plant response rating (rape; [2]): 0 | Rape plant response rating (0 to 10 scale) (rape; [3]): 0 | Rape plant response rating (rape; [4]): 0 | Rape plant response rating (rape; [5]): 4 | Rape plant response rating (rape; [6]): 0 | Plant response rating, Rape (rape; [7]): 0 | Rape plant response rating (rape; [8]): 2 | Blackgrass plant response rating (blackgrass; [1]): 0 | Blackgrass plant response rating (blackgrass; [2]): 0 | Blackgrass plant response rating (0 to 10 scale) (blackgrass; [3]): 2 | Blackgrass plant response rating (blackgrass; [4]): 2 | Blackgrass plant response rating (blackgrass; [5]): 2 | Blackgrass plant response rating (blackgrass; [6]): 0 | Plant response rating, Blackgrass (blackgrass; [7]): 0 | Blackgrass plant response rating (blackgrass; [8]): 3 | Sugarbeets plant response rating (sugar beet; [1]): 0 | Sugarbeets plant response rating (sugar beet; [2]): 3 | Sugarbeets plant response rating (0 to 10 scale) (sugar beet; [3]): 3 | Sugarbeets plant response rating (sugar beet; [4]): 6 | Sugarbeets plant response rating (sugar beet; [5]): 6 | Sugarbeets plant response rating (sugar beet; [6]): 0 | Plant response rating, Sugarbeets (sugar beet; [7]): 6 | Sugarbeets plant response rating (sugar beet; [8]): 6 | Corn plant response rating (corn; [1]): 0 | Corn plant response rating (corn; [2]): 0 | Corn plant response rating (0 to 10 scale) (corn; [3]): 0 | Corn plant response rating (corn; [4]): 0 | Corn plant response rating (corn; [5]): 0 | Corn plant response rating (corn; [6]): 0 | Plant response rating, Corn (corn; [7]): 0 | Corn plant response rating (corn; [8]): 0 | Bedstraw plant response rating (bedstraw; [1]): 4 | Bedstraw plant response rating (bedstraw; [2]): 0 | Bedstraw plant response rating (0 to 10 scale) (bedstraw; [3]): 0 | Bedstraw plant response rating (bedstraw; [5]): 3 | Bedstraw plant response rating (bedstraw; [6]): 0 | Plant response rating, Bedstraw (bedstraw; [7]): 6 | B. signalgrass plant response rating (surinam grass; [1]): 0 | B. signalgrass plant response rating (surinam grass; [2]): 0 | B. signalgrass plant response rating (0 to 10 scale) (surinam grass; [3]): 0 | B. signalgrass plant response rating (surinam grass; [4]): 0 | B. signalgrass plant response rating (surinam grass; [5]): 4 | B. signalgrass plant response rating (surinam grass; [6]): 0 | Plant response rating, B. signalgrass (surinam grass; [7]): 0 | B. signalgrass plant response rating (surinam grass; [10]): 0
